# Experimental data: US5486516A, “Furopyrimidine derivatives” (DowElanco, priority 1993, dated 1996)
# What was measured:
# [1] = test system: southern armyworm (Spodopetra eridania Cramer); test: Mite/insect screen, Southern armyworm; type: in vivo; conditions: Spodoptera eridania, sprayed leaves, read-out: SAW results (percent mortality); for mortality at 400 ppm: rate 400 ppm; for mortality at 200 ppm: rate 200 ppm
# Method: (§1) The compounds of Examples were tested for miticidal and insecticidal activity in the following mite/insect screen.
# (§2) Each test compound was formulated by dissolving the compound in acetone/alcohol (50:50) mixture containing 23 g of "TOXIMUL R" (sulfonate/nonionic emulsifier blend) and 13 g of "TOXIMUL S" (sulfonate/nonionic emulsifier blend) per liter. These mixtures were then diluted with water to give the indicated concentrations.
# (§3) Twospotted spider mites (Tetranychus urticae Koch) and melon aphids (Aphis gossvpii Glover) were introduced on squash cotyledons and allowed to establish on both leaf surfaces. Other plants in the same treatment pot were left uninfested. The leaves were then sprayed with 5 ml of test solution using a DeVilbiss atomizing sprayer at 10 psi. Both surfaces of the leaves were covered until runoff, and then allowed to dry for one hour. Two uninfested leaves were then excised and placed into a Petri dish containing larval southern armyworm (Spodopetra eridania Cramer).
# (§4) After standard exposure periods, percent mortality and phytotoxicity were evaluated. […] The following abbreviations are used in Table 3:
# SAW refers to Southern armyworm
# [2] = test system: Pyricularia oryzae (rice blast); test: whole plant or invertebrate; type: in vivo; conditions: foliar, read-out: RICE BLAST control rating
# [3] = test system: Twospotted spider mites (Tetranychus urticae Koch); test: Mite/insect screen, twospotted spider mites; type: in vivo; conditions: Tetranychus urticae, sprayed leaves, read-out: SM results (percent mortality); for mortality at 400 ppm: rate 400 ppm; for mortality at 200 ppm: rate 200 ppm
# Method: as §1, §2, §3, §4
# SM refers to twospotted spider mites
# [4] = test system: Puccinia recondita tritici (leaf rust); test: Plant pathology screen (Test 1), leaf rust on wheat; conditions: in Triticum aestivum, foliar, read-out: LEAF RUST control rating
# [5] = test system: Erysiphe graminis tritici (powdery mildew); test: Plant pathology screen (Test 1), powdery mildew on wheat; conditions: Blumeria graminis, in Triticum aestivum, foliar, read-out: POWD MDEW control rating
# [6] = test system: Botrytis cinerea (gray mold); test: Plant pathology screen (Test 1), gray mold on grape berries; conditions: read-out: GRAY MOLD control rating
# Method: This screen was used to evaluate the efficacy of the present compounds against a variety of different organisms that cause plant diseases.
# (§5) The test compounds were formulated for application by dissolving 50 mg of the compound into 1.25 ml of solvent. The solvent was prepared by mixing 50 ml of "Tween 20" (polyoxyethylene (20) sorbitan monolaurate emulsifier) with 475 ml of acetone and 475 ml of ethanol. The solvent/compound solution was diluted to 125 ml with deionized water. The resulting formulation contains 400 ppm test chemical. Lower concentrations were obtained by serial dilution with the solvent-surfactant mixture.
# (§6) The formulated test compounds were applied by foliar spray. The following plant pathogens and their corresponding plants were employed.
# (§7) The formulated technical compounds were sprayed on all foliar surfaces of the host plants (or cut berry) to past run-off. Single pots of each host plant were placed on raised, revolving pedestals in a fume hood. Test solutions were sprayed on all foliar surfaces. All treatments were allowed to dry and the plants were inoculated with the appropriate pathogens within 2-4 hours.
# (§8) The effectiveness of test compounds in controlling disease was rated using the following scale.
# [7] = test system: Pseudoperonospora cubensis (downy mildew); test: Plant pathology screen (Test 1), downy mildew on squash; conditions: foliar, read-out: DOWN MDEW control rating
# Method: as §5, §6, §7, §8
# [8] = test system: Southern corn rootworm (Diabrotica undecimpuctata howardi Barber); test: Mite/insect screen, corn rootworm; type: in vivo; conditions: Diabrotica, soil, read-out: CRW results (percent mortality); for mortality at 24 ppm: CRW rate 24.00 ppm; for mortality at 12 ppm: CRW rate 12.00 ppm
# Method: as §1, §2
# Activity on Southern corn rootworm (Diabrotica undecimpuctata howardi Barber) was evaluated by adding two ml of tap water, a presoaked corn seed, and 15 g of dry sandy soil to a one ounce plastic container. The soil was treated with 1 mL of test solution containing a predetermined concentration of test compound. After six to 12 hours of drying, five 2-3 instar corn rootworm larvae were added to the individual cups, which were then capped and held at 23° C.
# as §4
# CRW refers to corn rootworm
# [9] = test system: melon aphids (Aphis gossvpii Glover); test: Mite/insect screen, melon aphids; type: in vivo; conditions: Aphis, sprayed leaves, read-out: MA results (percent mortality); for mortality at 400 ppm: rate 400 ppm; for mortality at 200 ppm: rate 200 ppm
# Method: as §1, §2, §3, §4
# MA refers to melon aphids.
Compound,mortality at 400 ppm [1] [%],pest or weed control at 400 µg/mL [2] [%],mortality at 400 ppm [3] [%],pest or weed control at 400 µg/mL [4] [%],pest or weed control at 400 µg/mL [5] [%],pest or weed control at 400 µg/mL [6] [%],pest or weed control at 400 µg/mL [7] [%],mortality at 24 ppm [8] [%],mortality at 400 ppm [9] [%],mortality at 200 ppm [1] [%],mortality at 200 ppm [3] [%],mortality at 12 ppm [8] [%],mortality at 200 ppm [9] [%]
"Cc1oc2ncnc(OCCc3ccc(OC(F)(F)F)cc3)c2c1C [Example 69, 5,6-dimethyl-4-[2-[4-(trifluoromethoxy)phenyl]ethoxy]furo[2,3-d]pyrimidine]",0,20 to 89,90,20 to 89,90 to 100,0 to 19,0 to 19,0,90,,,,
Cc1oc2ncnc(OCCc3ccc4c(c3)OC(F)(F)O4)c2c1C [Example 70],0,0 to 19,0,0 to 19,0 to 19,0 to 19,0 to 19,0,0,,,,
"Cc1oc2ncnc(OCC3CCC(C)O3)c2c1C (stereo not shown) [Example 60, 5,6-dimethyl-4-[(2-methyloxolan-5-yl)methoxy]furo[2,3-d]pyrimidine]",0,0 to 19,80,0 to 19,0 to 19,0 to 19,90 to 100,0,60,0,0,0,50
"Cc1oc2ncnc(OCCc3ccc4ccccc4c3)c2c1C [Example 55, 5,6-dimethyl-4-[2-(2-naphthyl)ethoxy]furo[2,3-d]pyrimidine]",0,0 to 19,0,20 to 89,0 to 19,0 to 19,0 to 19,0,0,0,0,0,0
"COc1ccc(CCNc2ncnc3oc(C)c(C)c23)cc1OC [Example 25, 5,6-dimethyl-N-[2-(3,4-dimethoxyphenyl)ethyl]furo[2,3-d]pyrimidin-4-amine]",0,0 to 19,0,20 to 89,0 to 19,0 to 19,0 to 19,0,0,0,0,0,0
"Cc1oc2ncnc(OCCc3cccs3)c2c1C [Example 61, 5,6-dimethyl-4-[2-(2-thienyl)ethoxy]furo[2,3-d]pyrimidine]",0,20 to 89,0,20 to 89,90 to 100,0 to 19,90 to 100,0,0,0,90,0,90
"Cc1coc2ncn(CCc3ccc4ccccc4c3)c(=N)c12 [Example 79, 5-methyl-3-[2-(2-naphthyl)ethyl]furo[2,3-d]pyrimidin-4(3H)-imine]",0,20 to 89,0,20 to 89,0 to 19,0 to 19,90 to 100,0,0,,,,
"Cc1cc2c(OCCc3ccc(-c4ccccc4)cc3)ncnc2o1 [Example 7, 4-[2-(1,1'-biphenyl)-4-ylethoxy]6-methylfuro[2,3-d]pyrimidine]",0,20 to 89,0,0 to 19,0 to 19,0 to 19,20 to 89,0,0,0,30,0,100
"COc1ccc(CCNc2ncnc3occ(C)c23)cc1OC [Example 27, N-[2-(3,4-dimethoxyphenyl)ethyl]-5-methylfuro[2,3-d]pyrimidin-4-amine]",0,0 to 19,0,90 to 100,0 to 19,0 to 19,90 to 100,0,0,0,0,0,0
"Cc1coc2ncnc(NCCc3ccccc3)c12 [Example 19, 5-methyl-N-(2-phenylethyl)furo[2,3-d]pyrimidin-4-amine]",0,0 to 19,0,90 to 100,20 to 89,0 to 19,90 to 100,0,90,0,0,0,0
"Cc1cc2c(NCCc3ccc(Cl)cc3)ncnc2o1 [Example 6, 6-methyl-N-[2-(4-chlorophenyl)ethyl]furo(2,3-d]pyrimidin-4-amine]",0,0 to 19,0,0 to 19,0 to 19,0 to 19,0 to 19,0,0,0,0,0,0
"CCCCCCOc1ccc(CC(CNc2ncnc3oc(C)c(C)c23)c2cccc3ccccc23)cc1 (stereo not shown) [Example 71, 5,6-dimethyl-N-[3-[4-(n-hexyloxy)phenyl]-2-(1-naphthyl)propyl]furo[2,3-d]pyrimidin-4-amine]",0,0 to 19,0,0 to 19,0 to 19,0 to 19,0 to 19,0,0,,,,
"Cc1ccc(CCNc2ncnc3oc(C)c(C)c23)cc1 [Example 24, 5,6-dimethyl-N-[2-(4-methylphenyl)ethyl]furo[2,3-d]pyrimidin-4-amine]",0,20 to 89,0,90 to 100,0 to 19,0 to 19,0 to 19,0,0,0,0,0,0
"Cc1coc2ncnc(NCCc3ccc(Cl)cc3)c12 [Example 11, 5-methyl-N-[2-(4-chlorophenyl)ethyl]furo[2,3-d]pyrimidin-4-amine]",60,90 to 100,0,90 to 100,20 to 89,0 to 19,90 to 100,0,0,0,30,0,90
